Key:
Test in all cases: NCI-60 screening, one-dose (10 µM) and five-dose, SRB
LOX IMVI = type: cell-based, human; conditions: Homo sapiens, 10 μM, Melanoma, read-out: Growth percentage
CAKI-1 = type: cell-based; conditions: Homo sapiens; 10 μM; CAKI-1, Renal Cancer; read-out: Growth percentage
SW-620 = type: cell-based, human; conditions: Homo sapiens; 10 μM; SW-620, Colon Cancer; read-out: Growth percentage
HL-60(TB) = type: cell-based, human; conditions: Homo sapiens, HL-60, 10 μM; HL-60(TB), Leukemia; read-out: Growth percentage
HCT-15 = type: cell-based, human; conditions: Homo sapiens; 10 μM; HCT-15, Colon Cancer; read-out: Growth percentage
NCI-H460 = type: cell-based, human; conditions: Homo sapiens, NCI-H460, 10 μM; NCI-H460, Non-Small-Cell Lung Cancer; read-out: Growth percentage
HS 578T = type: cell-based, human; conditions: Homo sapiens, 10 μM, Breast Cancer, read-out: Growth percentage
RXF 393 = type: cell-based; conditions: Homo sapiens; 10 μM; RXF 393, Renal Cancer; read-out: Growth percentage
HCC-2998 = type: cell-based, human; conditions: Homo sapiens; 10 μM; HCC-2998, Colon Cancer; read-out: Growth percentage
KM12 = type: cell-based, human; conditions: Homo sapiens, KM12, 10 μM; KM12, Colon Cancer; read-out: Growth percentage
COLO 205 = type: cell-based, human; conditions: Homo sapiens; 10 μM; COLO 205, Colon Cancer; read-out: Growth percentage
SK-OV-3 = type: cell-based, human; conditions: Homo sapiens; 10 μM; SK-OV-3, Ovarian Cancer; read-out: Growth percentage
OVCAR-3 = type: cell-based; conditions: Homo sapiens; 10 μM; OVCAR-3, Ovarian Cancer; read-out: Growth percentage
SN12C = type: cell-based, human; conditions: Homo sapiens, 10 μM, Renal Cancer, read-out: Growth percentage
NCI-H226 = type: cell-based, human; conditions: Homo sapiens; 10 μM; NCI-H226, Non-Small-Cell Lung Cancer; read-out: Growth percentage
ACHN = type: cell-based, human; conditions: Homo sapiens, 10 μM, Renal Cancer, read-out: Growth percentage
MDA-MB-468 = type: cell-based, human; conditions: Homo sapiens, MDA-MB-468, 10 μM; MDA-MB-468, Breast Cancer; read-out: Growth percentage
From the text: Control cells Test cells FLD
available usually at NCI library.
An aliquot of frozen drug concentrate is […]

SK-MEL-2 = type: cell-based, human; conditions: Homo sapiens; 10 μM; SK-MEL-2, Melanoma; read-out: Growth percentage
A549/ATCC = type: cell-based, human; conditions: Homo sapiens, 10 μM, Non-Small-Cell Lung Cancer, read-out: Growth percentage
RPMI-8226 = type: cell-based, human; conditions: Homo sapiens, RPMI-8226, 10 μM; RPMI-8226, Leukemia; read-out: Growth percentage
MALME-3M = type: cell-based, human; conditions: 10 μM, Melanoma
SK-MEL-5 = type: cell-based, human; conditions: Homo sapiens; 10 μM; SK-MEL-5, Melanoma; read-out: Growth percentage
IGROV1 = type: cell-based, human; conditions: 10 μM; IGROV1, Ovarian Cancer
NCI-H23 = type: cell-based, human; conditions: Homo sapiens; 10 μM; NCI-H23, Non-Small-Cell Lung Cancer; read-out: Growth percentage
TK-10 = type: cell-based, human; conditions: Homo sapiens; 10 μM; TK-10, Renal Cancer; read-out: Growth percentage
PC-3 = type: cell-based, human; conditions: Homo sapiens; 10 μM; PC-3, Prostate Cancer; read-out: Growth percentage
NCI-H322M = type: cell-based, human; conditions: 10 μM, Non-Small-Cell Lung Cancer
HT29 = type: cell-based, human; conditions: Homo sapiens, HT-29; 10 μM; HT29, Colon Cancer; read-out: Growth percentage
MDA-MB231/ATCC = type: cell-based; conditions: 10 μM; MDA-MB231/ATCC, Breast Cancer

Structure (SMILES) | activity at 10 µM (LOX IMVI) | activity at 10 µM (CAKI-1) | activity at 10 µM (SW-620) | activity at 10 µM (HL-60(TB)) | activity at 10 µM (HCT-15) | activity at 10 µM (NCI-H460) | activity at 10 µM (HS 578T) | activity at 10 µM (RXF 393) | activity at 10 µM (HCC-2998) | activity at 10 µM (KM12) | activity at 10 µM (COLO 205) | activity at 10 µM (SK-OV-3) | activity at 10 µM (OVCAR-3) | activity at 10 µM (SN12C) | activity at 10 µM (NCI-H226) | activity at 10 µM (ACHN) | activity at 10 µM (MDA-MB-468) | activity at 10 µM (SK-MEL-2) | activity at 10 µM (A549/ATCC) | activity at 10 µM (RPMI-8226) | other results
CC(=O)c1sc(SCC(=O)N2CCN(c3cc4c(cc3F)c(=O)c(C(=O)O)cn4C3CC3)CC2)nc1C [Compound 4a, 7-(4-(2-((5-Acetyl-4-methylthiazol-2-yl)thio)acetyl)piperazin-1-yl)-1-cyclopropyl-6-fluoro-4-oxo-1,4-dihydroquinoline-3-carboxylic Acid] | 106% | 99.2% | 113% | 102% | 102% | 104% | 87.4% | 91.7% | 96.6% | 102% | 118% | 101% | 98.8% | 98% | 117% | 98.3% | 111% | 97.4% | 104% | 133% | Growth percentage (MALME-3M): 104.9%; activity at 10 µM (SK-MEL-5): 89%; Growth percentage (IGROV1): 115.9%; activity at 10 µM (NCI-H23): 106%; activity at 10 µM (TK-10): 97.9%; activity at 10 µM (PC-3): 98.8%; Growth percentage (NCI-H322M): 105.5%; activity at 10 µM (HT29): 104%
Cc1nc(SCC(=O)N2CCN(c3cc4c(cc3F)c(=O)c(C(=O)O)cn4C3CC3)CC2)sc1C(=O)/C=C/c1ccc([N+](=O)[O-])cc1 [Compound 4h, (E)-1-Cyclopropyl-6-fluoro-7-(4-(2-((4-methyl-5-(3-(4-nitrophenyl)acryloyl)thiazol-2-yl)thio)acetyl)piperazin-1-yl)-4-oxo-1,4-dihydroquinoline-3-carboxylic Acid] | 28.3% | 116% | 78.2% | 80.9% | 62.3% | 99.4% | 99.6% | 89.5% | 71.9% | 54.4% | 95.9% | 119% | 49.4% | 78.3% | 87.9% | 96.7% | 85.2% | 87.7% | 99.7% | 16.3% | activity at 10 µM (SK-MEL-5): 83.5%; activity at 10 µM (NCI-H23): 73.2%; Growth percentage (MDA-MB231/ATCC): 94.5%; activity at 10 µM (TK-10): 116%; activity at 10 µM (PC-3): 85.9%; activity at 10 µM (HT29): 76.1%
Cc1nc(SCC(=O)N2CCN(c3cc4c(cc3F)c(=O)c(C(=O)O)cn4C3CC3)CC2)sc1C(=O)/C=C/c1ccc(N(C)C)cc1 [Compound 4i, (E)-1-Cyclopropyl-7-(4-(2-((5-(3-(4-(dimethylamino)phenyl)acryloyl)-4-methylthiazol-2-yl)thio)acetyl)piperazin-1-yl)-6-fluoro-4-oxo-1,4-dihydroquinoline-3-carboxylic Acid] | 24.6% | 81.7% | 117% | 89.5% | 83.2% | 108% | 81.4% | 90.5% | 44.4% | 79.4% | 117% | 119% | 172% | 81.1% | 100% | 97.7% | 87.6% | 85.5% | 103% | 4.7% | activity at 10 µM (SK-MEL-5): 89.8%; activity at 10 µM (NCI-H23): 76.2%; Growth percentage (MDA-MB231/ATCC): 73.1%; activity at 10 µM (TK-10): 91.8%; activity at 10 µM (PC-3): 96.7%; activity at 10 µM (HT29): 47.9%
COc1ccc(/C=C/C(=O)c2sc(SCC(=O)N3CCN(c4cc5c(cc4F)c(=O)c(C(=O)O)cn5C4CC4)CC3)nc2C)cc1 [Compound 4j, (E)-1-Cyclopropyl-6-fluoro-7-(4-(2-((5-(3-(4-methoxyphenyl)acryloyl)-4-methylthiazol-2-yl)thio)acetyl)piperazin-1-yl)-4-oxo-1,4-dihydroquinoline-3-carboxylic Acid] | 97.9% | 94.9% | 123% | 101% | 104% | 106% | 96.4% | 99.3% | 100% | 112% | 106% | 115% | 174% | 96.2% | 102% | 97.4% | 107% | 104% | 105% | 106% | activity at 10 µM (SK-MEL-5): 99.7%; activity at 10 µM (NCI-H23): 102%; Growth percentage (MDA-MB231/ATCC): 94.8%; activity at 10 µM (TK-10): 102%; activity at 10 µM (PC-3): 107%; activity at 10 µM (HT29): 108%

— PMC12655637, “Design, Synthesis, and Mechanistic Study of Novel Ciprofloxacin/Thiazole Chalcone Hybrids as Potential Anticancer Agents” (Pharmaceuticals, 2025)
